Assay results: patent EP3027591B1, “NOVEL DERIVATIVES OF A 3,4-DIHYDROISOQUINOLINE-3-CARBOXYLIC ACID HAVING ANTI-CANCER PROPERTIES, A METHOD FOR THEIR SYNTHESIS, PHARMACEUTICAL COMPOSITIONS COMPRISING SAID DERIVATIVES, AND THEIR USE” (Narodowy Instytut Zdrowia Publicznego Panstwowy Zaklad …, priority 2013, dated 2015)
≈ marks a conversion by molar mass, not a printed value. Read-outs that look alike come from different tables or passages of the source.

Legend:
[1] = system: Balb/3T3 (normal mouse fibroblasts); assay: Cytotoxic activity against normal cells, SRB test; type: cell-based; conditions: Balb/3T3, 72-hour culture
Experimental: (§1) 4.3. Cytotoxic activity evaluation against normal cell lines with diverse tissue origins using the SRB test:
(§2) • a) normal mouse fibroblasts (BALB/3T3), • b) normal mammary gland cells (MCF-10), • c) normal human epithelium (HLMEC)
(§3) The stock solution of the tested compound with concentration of 20 mg/ml was prepared day before the analysis by dissolving the preparation in DMSO, followed by storage in -20°C. After 24 hours the preparation was thawed and diluted with the culture medium. The compounds were tested in concentrations of 100, 10, 1, 0.1 0.01 µg/ml.
(§4) The following human cancer cell lines were used in the study: HL-60 (promyelocytic leukemia), HL-60/MX2 (promyelocytic leukemia, line resistant to mitoxantrone), MCF7 (mammary gland cancer), LoVo (colorectal cancer), LoVo/Dx (colorectal cancer with multidrug resistance), HCV29T (bladder cancer), A498 (kidney cancer), A549 (lung cancer) and LNCaP (prostate cancer), as well as normal cell lines: BALB3T3 (normal mouse fibroblasts), MCF-10 (normal mammary gland cells) and HLMEC (normal human endothelium).
(§5) The cells in the phase of logarithmic growth were seeded on a 96-well plate (Sarsted) in quantity of 1 x 10^4 cells/well, and then incubated at 37°C, 5% CO2 for 24 hours. Subsequently, the tested compound was added in different concentrations and the incubation was carried out. […] For each assay the samples containing predetermined preparation concentrations were applied in triplicates. The experiments were repeated 3-5 times.
(§6) Sulphorhodamine B (SRB) is an anionic dye which binds to […] amino acids of cellular proteins. The determination of cytotoxic activity in the assay is based on the measurement of the amount of cellular proteins.
(§7) After the incubation is finished the attached cells are fixed with cold 50% TCA (4°C) at 4°C for 1 hour. Next, each well is washed with water and air dried, repeating this step 5 times.
(§8) 0.4% SRB solution (Sigma-Aldrich) dissolved in 1% acetic acid is added consecutively to each well and the staining is carried out for 30 minutes. The unbound dye is removed and the cells are washed 4 times with 1% acetic acid. Next, the plate is air dried for about 5 minutes.
(§9) The bound dye is dissolved by adding 10 mM Tris-base to each well and then OD is determined for wavelength 540 nm (Multiscan RC photometer, Labsystes, Helsinki).

[2] = system: MCF-10 (normal mammary gland cells); assay: Cytotoxic activity against normal cells, SRB test; type: cell-based
Experimental: as §1, §2, §3, §4, §5, §6, §7, §8, §9

[3] = system: HLMEC (normal human epithelium); assay: Cytotoxic activity against normal cells, SRB test; type: cell-based; conditions: 72-hour culture
Experimental: as §1, §2, §3, §4, §5, §6, §7, §8, §9

[4] = system: HL-60 (promyelocytic leukemia); assay: Anti-proliferative activity, MTT test; type: cell-based, human; conditions: HL-60, 72-hour culture
Experimental: (§10) 4.2. Anti-proliferative activity evaluation using the MTT test [Marcinkowska et al.: J. Steroid Biochem. Mol. 76: 71-78, 1998] against human cancer cell lines with diverse tissue origins and determination of the IC50 concentration: • a) promyelocytic leukemia HL-60, • b) promyelocytic leukemia HL-60/MX2 (with multidrug resistance)
as §3, §4, §5
(§11) The method involves a measurement of cell number increase inhibition utilizing the redox activity of mitochondria. The determination of biological activity with the MTT (3-(4,5-dimethylthiazol-2-yl)-2,5-diphenyltetrazolium bromide) assay is based on the assumption that reduction of the dye occurs only in viable cells. As a result of mitochondrial dehydrogenase activity the water-soluble tetrazolium salt (thiazolyl blue […] - MTT) is converted to water-insoluble formazan crystals. The quantity of the formed formazan crystals is proportional to the number of cells.
(§12) 3-4 hours before the end of cell incubation 20 µl of MTT solution (5 mg/ml) was added to each well. Next, 80 µl of dissolving mixture (with the following composition: 225 ml DMF (POCh), 67.5 g SDS (Sigma-Aldrich), 275 ml distilled H2O) was added. After 24 hours, formazan crystals were dissolved and OD of the samples was measured for wavelength 570 nm (Multiskan PC photometer, Labsystem, Helsinki).

[5] = system: HL-60 MX2 (promyelocytic leukemia with multidrug resistance); assay: Anti-proliferative activity, MTT test; type: cell-based, human
Experimental: as §10, §3, §4, §5, §11, §12

MCF-7 (breast cancer) = assay: Anti-proliferative activity, SRB test; type: cell-based, human
Description: (§13) 4.1. Anti-proliferative activity evaluation using the SRB test [Skehan et al., J. Natl. Cancer Inst., 82: 1107-1112, 1990] against human cancer cell lines with diverse tissue origins and determination of the IC50 concentration: • a) colorectal cancer LoVo, • b) colorectal cancer LoVo/DX (with multidrug resistance), • c) breast cancer MCF-7, • d) prostate cancer LNCaP, • e) bladder cancer HCV29T, • f) kidney cancer A498, • g) lung cancer A549
as §3, §4, §5, §6, §7, §8, §9

HCV29T (bladder cancer) = assay: Anti-proliferative activity, SRB test; type: cell-based, human; conditions: 72-hour culture
Description: as §13, §3, §4, §5, §6, §7, §8, §9

Lovo (colorectal cancer) = assay: Anti-proliferative activity, SRB test; type: cell-based, human; conditions: 72-hour culture
Description: as §13, §3, §4, §5, §6, §7, §8, §9

A549 (lung cancer) = assay: Anti-proliferative activity, SRB test; type: cell-based, human; conditions: A549, 72-hour culture
Description: as §13, §3, §4, §5, §6, §7, §8, §9

LNCaP (prostate cancer) = assay: Anti-proliferative activity, SRB test; type: cell-based, human; conditions: 72-hour culture
Description: as §13, §3, §4, §5, §6, §7, §8, §9

[6] = system: Lovo/Dx (colorectal cancer with multidrug resistance); assay: Anti-proliferative activity, SRB test; type: cell-based, human; conditions: 72-hour culture
Description: as §13, §3, §4, §5, §6, §7, §8, §9

A498 (kidney cancer) = assay: Anti-proliferative activity, SRB test; type: cell-based, human; conditions: A498, 72-hour culture
Description: as §13, §3, §4, §5, §6, §7, §8, §9

[7] = biological target: T1, pig kidney microsomal leucyl aminopeptidase, Type IV-S (Sus scrofa, UniProt P15145); assay: Leucyl aminopeptidase inhibition (L-leucine p-nitroanilide substrate, absorbance 405 nm); type: biochemical; conditions: pre-incubation 30 minutes at 37 °C, pH 8.5; IC50 by linear regression
T1 construct: pig kidney microsomal leucyl aminopeptidase, Type IV-S (Sigma-Aldrich) 3.5 mg of protein/ml; purchased Sigma-Aldrich; host or cells: pig kidney (microsomal fraction)
T1 sequence (P15145 1-963): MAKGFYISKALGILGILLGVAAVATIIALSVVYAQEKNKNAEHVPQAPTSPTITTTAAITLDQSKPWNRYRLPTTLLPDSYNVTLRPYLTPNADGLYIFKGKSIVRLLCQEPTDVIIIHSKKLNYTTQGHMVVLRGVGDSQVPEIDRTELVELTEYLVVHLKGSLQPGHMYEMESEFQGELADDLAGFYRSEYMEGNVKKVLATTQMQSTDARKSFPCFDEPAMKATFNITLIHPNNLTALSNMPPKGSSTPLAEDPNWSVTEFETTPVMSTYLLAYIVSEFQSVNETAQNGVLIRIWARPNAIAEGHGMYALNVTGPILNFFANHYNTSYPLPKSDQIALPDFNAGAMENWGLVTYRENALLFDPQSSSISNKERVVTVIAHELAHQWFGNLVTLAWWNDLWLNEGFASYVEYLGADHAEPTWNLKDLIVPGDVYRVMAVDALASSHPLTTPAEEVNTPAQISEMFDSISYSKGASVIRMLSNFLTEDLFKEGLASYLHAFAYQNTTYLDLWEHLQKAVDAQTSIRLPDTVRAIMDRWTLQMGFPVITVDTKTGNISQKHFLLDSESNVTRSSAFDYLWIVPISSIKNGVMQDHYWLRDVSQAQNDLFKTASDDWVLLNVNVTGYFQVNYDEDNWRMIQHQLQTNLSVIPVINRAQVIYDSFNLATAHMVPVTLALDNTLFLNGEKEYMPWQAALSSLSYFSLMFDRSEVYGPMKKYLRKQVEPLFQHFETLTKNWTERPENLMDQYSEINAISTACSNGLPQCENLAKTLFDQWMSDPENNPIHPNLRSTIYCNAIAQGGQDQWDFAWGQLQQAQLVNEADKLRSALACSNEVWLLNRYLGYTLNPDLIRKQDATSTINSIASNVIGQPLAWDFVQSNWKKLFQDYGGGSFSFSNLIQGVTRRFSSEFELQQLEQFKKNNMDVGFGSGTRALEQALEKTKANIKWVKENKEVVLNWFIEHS
Experimental: Leucyl aminopeptidase inhibition according to Cahan R., Hetzroni E., Nisnevitch M., Nitzan Y.: Purification and Identification of a Novel Leucine Aminopeptidase from Bacillus Thuringiensis israelensis. Curr. Microbial (2007) 55: 413-419.
• 1. Enzyme: pig kidney microsomal leucyl aminopeptidase, Type IV-S (Sigma-Aldrich) 3.5 mg of protein/ml, 28 U/mg of protein; diluted with 0.02M Tris-HCl + 0.5 mM CaCl2 buffer pH=8.5 until activity 0.01225U achieved • 2. Substrate: L-leucine p-nitroanilide: 4.2 mg / 269 µl DMSO; solution diluted 1:19 with 0.02 M Tris-HCl buffer, pH = 8.5 + 0.5 mM CaCl2 • 3. 0.02 M Tris-HCl buffer, pH = 8.5 + 0.5 mM CaCl2 • 4. DMSO, inhibitor solution in DMSO
5 µl of leucyl aminopeptidase ([…]), 70 µl of Tris, 5 µl of inhibitor solution in different concentrations (in DMSO) were added to the wells of a microtitration plate, followed by pre-incubation for 30 minutes at 37 °C. Next, 20µl of diluted L-leucine p-nitroanilide solution was added, whereupon the reaction mixture was incubated for 20 minutes at 37 °C, with measurement of absorbance changes for wavelength 405 nm (Fluorostar, Omega, BMG Labtech). The control sample for the enzyme contained analogous components, while instead of the inhibitor solution DMSO (5 µl) was added.
For each inhibitor concentration the percentage inhibition was calculated. The inhibitor concentration required for 50% of enzyme activity inhibition (IC50) was calculated based on linear regression data between the percentage inhibition and the concentration for a given inhibitor.

[8] = Homo sapiens, MCF10, MCF-10, 72-hour culture, read-out: IC50
[9] = Homo sapiens, HL60/MX2, HL-60 MX2, 72-hour culture, read-out: IC50
[10] = Homo sapiens, MCF7, MCF-7, 72-hour culture, read-out: IC50

| SMILES | IC50 ([1]; Mus musculus, read-out: IC50) [µg/mL] | IC50 [2, 8] [µg/mL] | IC50 ([3]; Homo sapiens, read-out: IC50) [µg/mL] | IC50 [7] [µM] | IC50 ([4]; Homo sapiens, read-out: IC50) [µg/mL] | IC50 [5, 9] [µg/mL] | IC50 (MCF-7 (breast cancer); [10]) [µg/mL] | IC50 (HCV29T (bladder cancer); Homo sapiens, read-out: IC50) [µg/mL] | IC50 (Lovo (colorectal cancer); Homo sapiens, read-out: IC50) [µg/mL] | IC50 (A549 (lung cancer); Homo sapiens, read-out: IC50) [µg/mL] | IC50 (LNCaP (prostate cancer); Homo sapiens, read-out: IC50) [µg/mL] | IC50 ([6]; Homo sapiens, read-out: IC50) [µg/mL] | IC50 (A498 (kidney cancer); Homo sapiens, read-out: IC50) [µg/mL] | also measured |
| --- | --- | --- | --- | --- | --- | --- | --- | --- | --- | --- | --- | --- | --- | --- |
| N.N.[Cl][Pt][Cl] [Cisplatin, reference compound] |  |  |  |  |  |  |  |  |  |  |  |  |  | IC50 [1]: 2.4 ± 0.3 µg/mL; IC50 ([2]; MCF-10, 72-hour culture): 0.7 µg/mL; IC50 [3]: 2.6 ± 0.3 µg/mL; IC50 [4]: 0.4 ± 0.1 µg/mL; IC50 ([5]; HL-60 MX2, 72-hour culture): 0.32 ± 0.02 µg/mL; IC50 (MCF-7 (breast cancer); MCF-7, 72-hour culture): 3.6 ± 0.6 µg/mL; IC50 (HCV29T (bladder cancer)): 2.7 ± 0.6 µg/mL; IC50 (Lovo (colorectal cancer)): 2.5 ± 1.3 µg/mL; IC50 (A549 (lung cancer)): 3.2 ± 1.0 µg/mL; IC50 (LNCaP (prostate cancer)): 6.2 ± 1.3 µg/mL; IC50 [6]: 3.0 ± 0.7 µg/mL; IC50 (A498 (kidney cancer)): 2.8 ± 0.6 µg/mL |
| CCOC(=O)C1(C(=O)OCC)Cc2cc(OCc3ccccc3)cc(OCc3ccccc3)c2C=N1 [Compound 3, 6,8-dibenzyloxy-3,4-dihydroisoquinoline-3,3-dicarboxylic acid diethyl ester] | 17.4 ± 7.9 (≈ 35.6 µM) | 15.3 (≈ 31.4 µM) | 3.3 ± 0.3 (≈ 6.77 µM) | 28 | 0.12 (≈ 0.246 µM) | 1.3 (≈ 2.67 µM) | 4.7 ± 0.8 (≈ 9.64 µM) | 4.3 ± 0.7 (≈ 8.82 µM) | 3.1 ± 0.3 (≈ 6.36 µM) | 6.4 ± 2.3 (≈ 13.1 µM) | 1.6 ± 0.3 (≈ 3.28 µM) | 2 ± 0.8 (≈ 4.1 µM) | 6.5 ± 1.5 (≈ 13.3 µM) |  |
| CCOC(=O)C1(C(=O)OCC)Cc2cc(O)cc(O)c2C=N1 [Compound 4, 6,8-dihydroxy-3,4-dihydroisoquinoline-3,3-dicarboxylic acid diethyl ester] |  |  |  | 1350 |  |  |  |  |  |  |  |  |  |  |
| O=C(O)C1Cc2cc(O)c(O)c(O)c2C=N1 (stereo not drawn) [Compound 8, 6,7,8-trihydroxy-3,4-dihydroisoquinoline-3-carboxylic acid] | 52.5 ± 22.3 (≈ 235 µM) | 18.9 ± 11.4 (≈ 84.7 µM) | 33.4 ± 5 (≈ 150 µM) | 3800 | 27.7 ± 4.3 (≈ 124 µM) | 33.2 ± 2.7 (≈ 149 µM) | 18.9 ± 11.4 (≈ 84.7 µM) | 28.7 ± 7.2 (≈ 129 µM) | 33.6 ± 9.5 (≈ 151 µM) | 44.3 ± 6.7 (≈ 198 µM) | 30.9 ± 5.7 (≈ 138 µM) | 30.1 ± 2.3 (≈ 135 µM) | 40 ± 18.4 (≈ 179 µM) |  |
